Data from patent US11203582B2, “Benzamide derivatives for inhibiting endoplasmic reticulum (ER) stress” (The Board of Regents of the University of Oklahoma, priority 2017, dated 2021).
Like-named read-outs stand apart in the source and are kept apart here.

Columns and labels:
[1] = tested on: ATF4 mRNA; assay: qRT-PCR of ATF4 mRNA in INS-1 cells; assay type: cell-based, rat
Experimental: (A, B) INS-1 cells were treated with or without Tm (0.1 μg/mL) in the presence of 13d or DMSO for 8 h. ATF4 (A) and CHOP (B) mRNA levels were analyzed by qRT-PCR. Relative mRNA levels were normalized against the housekeeping gene Cyclophilin A using the comparative CT method. The results were expressed as the fold-increase over mRNA levels in untreated control cells and are the means of 3 replicate wells and representative of 3 independent experiments. ** P<0.01 compared with Tm treatment alone. Bar indicates SD. (C-E) INS-1 cells were treated with or without Tm (0.1 μg/mL) in the presence of 13d or DMSO for 8 hATF4 and CHOP protein levels were determined by Western blotting (C). α-Tubulin was used as an internal control. Quantification of ATF4 (D) and CHOP (E) protein levels was analyzed by ImageJ program, which was normalized by α-Tubulin protein level. The data shown are representative of 3 independent experiments.
Having established that compound 13d restores ER stress-impaired β-cell survival and function, we next investigated the mechanism of action by which 13d protects β-cells against ER stress. Chronic or severe ER stress activates all three branches of the UPR, PERK, IRE1α, and ATF6, leading to eventual cell death. First, we determined the effect of 13d on the activation of the PERK pathway in β-cells under ER stress. […]

[2] = tested on: INS-1 cells; assay: Cell survival assay, intracellular ATP (CellTiter-Glo), INS-1 cells treated with Tm; assay type: cell-based, rat
Experimental: A structure-activity-relationship (SAR) study was thus conducted to improve the weak potency of lead compound 1. Newly synthesized or commercially available compounds were tested for their β-cell-protective activity against ER stress in rat INS-1 β-cells. […] The maximum activities and the concentrations that reach half-maximal activity (EC50) of the compounds were evaluated by the degree of increase in viability of INS-1 cells co-treated with the compounds in the presence of Tm compared with Tm treatment alone. Maximum activity value in the tables is reported as % rescue from Tm (0.1 μg/mL)-induced reduction of cell viability. The values for Tm treatment alone and control (DMSO, without Tm) treatment are designated as 0% and 100%, respectively in all tables. EC50 values (the concentrations that reach half-maximal activity) for INS-1 cell viability were calculated with GraphPad Prism from the data of ten 2-fold serial titration points in all tables. All experiments were performed in triplicate in all tables.
INS-1 cells were cultured in RPMI 1640 (Corning, N.Y., USA) supplemented with 10% FBS (Atlanta Biologicals, Norcross, Ga.), HEPES (10 mM, Life Technologies, CA, USA), sodium pyruvate (1 mM, Corning), 2-mercaptoethanol (50 μM, Sigma, St Louis, Mo., USA) and antibiotics (100 UI/mL penicillin and 100 μg/mL streptomycin, Corning). βTC6 cells were cultured in DMEM (Corning) with 15% FBS, sodium pyruvate (1 mM, Corning), non-essential amino acids (1 mM, Thermo, Ill., USA), GlutaMAX (1 mM, Life Technologies) and antibiotics (100 UI/mL penicillin and 100 μg/mL streptomycin). All cells were grown at 37° C. in a humidified 5% CO2 atmosphere.
INS-1 cells or βTC6 cells were seeded at 3×10^3 cells/well in a 384-well plate and treated with compounds at the indicated concentrations. After 3 d treatment, the medium was aspirated and 20 μL/well of CellTiter-Glo reagent (Promega, WI, USA) was added for the detection of intracellular ATP levels. Cell viability was measured with an EnVision multilabel plate reader (PerkinElmer, MA, USA).

## O=C(NCc1ccc(C(F)(F)F)cc1)c1cccc(CN2CCCCC2)c1 [Compound 13d, N-(4-trifluoromethylphenmethyl)-3-(N-piperidinyl)methyl benzamide]
[1]; Tm 0.1 μg/mL co-treatment, 8 h
  Tm-induced increase in ATF4 mRNA level: almost completely abolished
[1]; without Tm
  effect on ATF4 mRNA level on its own: no effect
[2]; INS-1 cells, Tm 0.1 μg/mL, 72 h, FIG. 2A
  range of concentrations retaining maximum β-cell-protective activity: 0.16 to 20 µM
[2]; INS-1 cells, Tm-induced ER stress
  maximum activity (β-cell-protective activity): ~100%
[2]; INS-1 cells, Tm-induced ER stress, read-out: EC50
  EC50: 32 nM
[2]; INS-1 cells, no Tm, 72 h, FIG. 2D
  effect of compound on its own on β-cell viability: no effect
[2]; Table 5, INS-1 cells, Tm 0.1 μg/mL, 72 h, Tm alone 0%, DMSO control 100%
  Maximum activity (% rescue): 97% ± 8%
[2]; Tm 0.1 μg/mL, 72 h, FIG. 2A
  viability of INS-1 β-cells under Tm treatment (intracellular ATP): rescued the viability of INS-1 β-cells under Tm treatment in a dose-dependent manner
[2]; running text b108, read-out: EC50 value against ER stress
  EC50: ~30 nM
